Results on one molecule are retold here after patent US10968181B2, “NRF2 activator” (BIOGEN MA INC., priority 2016, dated 2021).

Molecules are shown by their SMILES.

The test system of one assay is NQO-1 gene. As to the kind of experiment: NQO-1 gene induction in spleen of Townes mice. The note with it: Townes SS mice, oral single dose 10 or 50 mg/kg or two doses of 25 mg/kg; at least at the 6 hour time point; FIGS. 10A-10C and 12. Type of assay: in vivo, Townes SCD mouse. The source says:
(§1) All animal experiments conformed to the guidance issued by the Biogen Institutional Animal Care and Use Committee and are described in approved protocols. The SCD mouse strain used in the in vivo studies is the Townes SCD mouse [Wu L C, Sun C W, Ryan™, Pawlik K M, Ren J, Townes™. Correction of sickle cell disease by homologous recombination in embryonic stem cells. Blood. 2006, 108(4):1183-8]. […] These mice harboring the sickle cell mutations in the hemoglobin β-globins chain show the presence of sickle cell disease characterized by abnormally low hemoglobin, circulating sickle shaped erythrocytes, varying degrees of damage of internal organs such as spleen, liver, and kidney. Male and female Townes SS mice aged 8 to 12 weeks were used for studies described here. […]
(§2) Frozen spleens were placed at room temperature. […] Extracted RNA was then quantitated using a Nanodrop and 1 μg of total RNA was converted to cDNA using VILO Mastermix kit according to manufacturer's protocol.
(§3) cDNA prepared from RNA isolated from tissue samples was used to determine gene expression levels of using Taqman based real time PCR (Life Technologies, ThermoFisher Scientific). […] Results were analyzed using the 7500 software version 2.0.5 and the relative levels of transcripts were measured with GAPDH as the endogenous housekeeping gene control using the 2^−ΔΔCt relative quantification method.

The test system of assay [1] is Nrf2 target genes. Nature of the assay: Nrf2 target gene expression (qRT-PCR) in tissues of wild type and Nrf2−/− mice. Type of assay: in vivo. The method, then: All procedures involving animals were performed in accordance with standards established in the Guide for the Care and Use of Laboratory Animals as adopted by the U.S. National Institutes of Health. All animal protocols were approved by the Biogen Institutional Animal Care and Use Committee, which is accredited by the Association for Assessment and Accreditation of Laboratory Animal Care International. Female 6-10 week-old wild type C57BL/6 and Nrf2−/− mice (Itoh et al, 1997; maintained at Jackson Labs, Bar Harbor, Me.) were maintained on a 12-hour light/dark cycle and given access to food and water ad libitum.
Compound 12-Ent1 (25 mg/kg) was administered as a single, oral dose in a vehicle of Solutol HS-15/polyethylene glycol/ethanol/water (10/10/10/70) to C57BL/6 (wt) and Nrf2−/− mice. Brain, jejunum, kidney and spleen were collected at 2 or 6 hours after dosing and snap frozen for RNA analysis of Nrf2 target genes.
For RNA preparation, frozen tissues were placed in 2 mL RNAse-free 96-well blocks with 1.5 ml QIAzol Lysis Reagent (QIAgen) and a 3.2 mm stainless steel bead (BioSpec Products, Bartlesville, Okla.). Tissues were disrupted for four cycles of 45 seconds in a Mini-Beadbeater (Biospec Products). RNA was extracted in chloroform and the aqueous phase was mixed with an equal volume of 70% ethanol. Extracted RNA was applied to RNeasy 96 plates and purified by the spin method according to the manufacturer's protocol (RNeasy 96 Universal Tissue Protocol, QIAgen, Hilden Germany).
qRT-PCR was performed from total mRNA isolated from tissues and reverse-transcribed into cDNA according to manufacturer protocols (Life Technologies, Carlsbad, Calif.). 20× Taqman target gene mouse primer/probe sets (see table below) were mixed with cDNA and 2× Taqman Universal Master Mix to a final volume of 20 uL. All final reactions contained 100 ng of cDNA, 900 nM of each primer, and 250 nM TaqMan® probes and were cycled on a QuantStudio™ 12K Flex system (Life Technologies). All samples were measured in triplicate using beta actin as a normalizing gene. Final analysis was performed using the comparative CT method to calculate fold changes and samples were normalized relative to wild type vehicle control at each time point.

For assay [2], the system named is human astrocytes. Nature of the assay: Glutathione assay in cultured human astrocytes. Type of assay: cell-based. The note with it: 20-hr exposure, FIG. 2. The method, then: (§4) Human astrocytes from ScienCell (cat #1820) were grown in astrocyte medium per supplier's instructions. Cells cultured for no more than two passages were plated in poly-D-lysine coated 96-well plates at 40,000 cells per well for gene transcription experiments and 20,000 cell per well for glutathione and cytoprotection assays.
Intracellular glutathione was measured after a 20-hr exposure to test compounds by a two-step process. First, cells were lysed and luciferin quantitatively generated from substrate, catalyzed by glutathione-S-transferase in the presence of analyte glutathione. Then luciferin was assayed using stabilized luciferase to produce a luminescent signal proportional to the concentration of glutathione (Promega GSH-Glo, cat #V6912).

The test system of assay [3] is Nrf2 target genes. Nature of the assay: Gene expression (RT-PCR) in cultured human astrocytes. Type of assay: cell-based. The note with it: human astrocytes treated 20 hours; compared to 0.03% DMSO vehicle; FIGS. 1A to 1D. The method, then: as §4
Primary cultures of human spinal cord astrocytes were treated with test compounds for 20 hours. The cells were then rinsed in PBS, lysed, and processed for RNA using Ambion Taqman™ Cells-to-CT kit. The resulting cDNA was stored at −20° C. until analysis by real-time polymerase chain reaction (RT-PCR). The cDNA mixture from Cells-to-CT was diluted 5× before loading into PCR. This yields results similar to using 6 ng of purified cDNA. RT-PCR was performed on Life Technologies QuantStudio platform using OpenArray technique according to manufacturer's protocol using the following Taqman primers: […]
The comparative CT method was used to calculate fold changes using ThermoFisher Cloud software for PCR analysis. Samples were compared to 0.03% DMSO vehicle control.

Assay [4] concerns human astrocytes. As to the kind of experiment: Cytoprotection of human astrocytes against sodium arsenite. Type of assay: cell-based. Particulars: compound 20 hrs before arsenite, then 22 hrs, FIG. 3. The method, then:
Human astrocytes from ScienCell (cat #1820) were grown in astrocyte medium per supplier's instructions. Cells cultured for no more than two passages were plated in poly-D-lysine coated 96-well plates at 40,000 cells per well for gene transcription experiments and 20,000 cell per well for glutathione and cytoprotection assays. Astrocytes were treated for 20 hrs with test compounds, then the medium was removed and replaced with serum- and supplement-free growth medium with and without 25 μM sodium arsenite. After 22 hrs., cells were washed with PBS, fixed with 4% paraformaldehyde/4% sucrose in PBS, stained with 4′,6-Diamidino-2-phenylindole dihydrochloride (DAPI) and counted by quantitative fluorescence microscopy.

The next assay deals with HUDEP cells. Nature of the assay: HbF protein ELISA in cultured HUDEP cells. The note with it: differentiating HUDEP cells, 72 hours, compared to DMSO; FIG. 8. Type of assay: cell-based, human. The method, then:
Human Umbilical Derived Erythroid Cells (HUDEP; from Riken Institute, Japan) were cultured in Stemspan SFEM medium (Stemcell Technologies, Vancouver, Canada) supplemented with erythroid cytokines and growth factors. Compound incubations were performed in HUDEP cells cultured in differentiation media.
Differentiating HUDEP cells were cultured with increasing concentrations of 12-Ent1 or equivalent DMSO concentrations for 72 hours and the levels of HbF protein was measured using a commercially available ELISA specific for human HbF (Bethyl Laboratories, TX) based on manufacturer's protocol.

The next assay deals with γ-globin gene. Nature of the assay: γ-globin gene induction in spleen of Townes mice. Type of assay: in vivo, Townes SCD mouse. Particulars: Townes SS mice, oral single dose 10, 25 or 50 mg/kg or two doses of 25 mg/kg; at least at the 24 hour time point; FIGS. 9A-9D and 11.
Description: as §1, §2, §3

Where [5] appears, read: wild type vs Nrf2−/− mice, 25 mg/kg oral.

Regarding `CC(=O)N1CC[C@@H]2C(C)(C)C(=O)C(C#N)=C[C@@]2(C)C1` (single isomer, unassigned) [Compound 12-Ent1], the “NQO-1 gene in spleen” value in the assay with NQO-1 gene was “induces”. The “expression of Akr1b8, Nqo1, Hmox1 and Osgin1 in kidney” value with Nrf2 target genes [1] (25 mg/kg single oral dose, 2 hours and 6 hours after dosing, FIGS. 4A to 4D) is on record as “increases”. Also, in the assay on Nrf2 target genes [1] (25 mg/kg single oral dose, 2 hours and 6 hours after dosing, FIGS. 5A to 5D), the “expression of Akr1b8, Nqo1, Hmox1 and Osgin1 in Jejunum” value was “increases”. Moreover, the “expression of Nqo1, Hmox1 and Osgin1 in spleen” value with Nrf2 target genes [1] (25 mg/kg single oral dose, 2 hours and 6 hours after dosing, FIGS. 6A to 6D) is “increases”. Besides, the “expression of Nqo1, Hmox1 and Osgin1 in brain” value with Nrf2 target genes [1] (25 mg/kg single oral dose, 2 hours and 6 hours after dosing, FIGS. 7A to 7D) is recorded as “increases”. Also, in the assay on Nrf2 target genes [1] (setting [5]), the “Nrf2 dependence of the gene expression increases in Jejunum” value is listed as “Nrf2-dependent”, the “Nrf2 dependence of the gene expression increases in brain” value is recorded as “Nrf2-dependent”, the “Nrf2 dependence of the gene expression increases in kidney” value is on record as “Nrf2-dependent” and the “Nrf2 dependence of the gene expression increases in spleen” value is listed as “Nrf2-dependent”. Moreover, the intracellular glutathione entry in the assay on human astrocytes [2] was “increases”. The “transcription of Nrf2 target genes, including GCLC, HMOX1, OSGIN1 and NQO1” value in the assay with Nrf2 target genes [3] is on record as “induces transcription”. Further, the “protection from oxidative stress-induced cell death caused by 25 μM sodium arsenite” value with human astrocytes [4] was “protects cells”. For the same molecule, the “HbF protein in cultured HUDEP cells” value in the assay with HUDEP cells is “induces”. Also, in the assay with γ-globin gene, the “human γ-globin gene in spleen” value is recorded as “induces”.
